Consider 3 molecules from patent publication US20230364121A1 (priority 2020, published 2023).

Data set [1] relates to SARS-CoV-2 strain BavPatl. Nature of the data set: Antiviral assay in HUH7.5 cells, viral RNA by RT-qPCR. In kind it is cell-based. Conditions: 2 days.
Data set [2] concerns human coronavirus beta-OC43. Nature of the data set: microbe, parasite or virus in culture. In kind it is cell-based, HCoV-OC43. Conditions: unidentified human coronavirus, OC43, Huh-7, read-out: VYR EC90.
The next data set has as its system HCoV-OC43. Nature of the data set: microbe, parasite or virus in culture. In kind it is cell-based. Conditions: Betacoronavirus 1, OC43, RD.
A further data set concerns RD cells. Conditions: human.
A further data set has as its system Huh7 cells. The note with it: human.
Data set [3] deals with human coronavirus alpha-229E. Nature of the data set: microbe, parasite or virus in culture. Type of data set: cell-based, HCoV-229E.
Data set [4] in a line: Cytotoxicity in mock infected BHK cells (MTT). Type of data set: cell-based, hamster. Conditions: hamster, uninfected BHK-21 cells; BHK-21; Table 5. The protocol:
To determine the cytotoxicity, cells were seeded at an initial density of 1×10^6 cells/mL in 96 well plates containing Minimum Essential Medium with Earles's salts (MEM-E), L-glutamine, 1 mM sodium pyruvate and 25 mg/L kanamycin, supplemented with 10% fetal bovine serum. Cell cultures were then incubated at 37° C. in a humidified 5% CO2 atmosphere in the absence or presence of serial dilutions of test compounds. Cell viability was determined by the MTT method.
Uninfected cells in the presence of serially diluted compound were used to assess the cytotoxicity of compounds.

The test system of another data set is MERS-CoV. In kind it is cell-based.
Data set [5] relates to HCoV-229E, HCoV-OC43, SARS-CoV-1 and SARS-CoV-2. As to the kind of experiment: organism not typed. Type of data set: cell-based, human coronaviruses. Conditions: Huh-7, read-out: Individual determinations of EC90 values.
For the next data set, the system named is SARS-CoV (Urbani). In kind it is cell-based. Conditions: SARS-CoV-1, Huh-7, Table 5.
The subject of a further data set is SARS-CoV-2 (WA1). Nature of the data set: microbe, parasite or virus in culture. In kind it is cell-based.
Data set [6] relates to HCoV-229E. As to the kind of experiment: Virus-induced CPE assay, HCoV-229E in BHK-21 cells (MTT). Type of data set: cell-based. The protocol:
In an initial screening, BHK-21 cells acutely infected with a seasonal human alpha coronavirus, HCoV-229E, were exposed to serial dilutions of Compound 1A.
BHK-21 cells: Test compounds were dissolved in DMSO at 100 mM and then diluted in Minimum Essential Medium with Earle's salts (MEM-E) containing 1 mM sodium pyruvate and 25 μg/mL kanamycin, supplemented with 10% FBS (growth medium) to final concentrations of 100, 20, 4 and 0.8 μM (two […] replica plates each). After BHK-21 cells were grown to confluency in 96-well plates, growth medium was replaced with fresh maintenance medium (growth medium with 1% inactivated FBS in place of 10% FBS) containing serially diluted test compound and HCoV-229E at a multiplicity of infection (MOI) of 0.01. Uninfected cells in the presence of serially diluted compound were used to assess the cytotoxicity of compounds. After a 3-day incubation at 37° C. in a humidified 5% CO2 atmosphere, cell viability was determined by the MTT method (Pauwels, R et al. J. Virol. Methods 20(4):309-321 (1988)).

Data set [7] has as its system HCoV-229E. The note with it: MRC-5 cells; cited from earlier work.
For a further data set, the system named is dNHBE (HAE) cells. Conditions: human.
The mark [8] stands for this setting: read-out: Neutral Red Assay EC50.
[9] abbreviates: read-out: Virus Yield Reduction Assay EC90.
Where [10] appears, read: Severe acute respiratory syndrome coronavirus 2, HAE, read-out: EC90, single replicates.
The mark [11] stands for this setting: Severe acute respiratory syndrome coronavirus 2, HAE, read-out: Virus Yield Reduction Assay EC90.
The mark [12] stands for this setting: read-out: EC90, single replicates.

“And” between values parts separate entries of the source, which are not always exact repeats. Identical values can stand only once. Like-named read-outs stand apart in the source and are kept apart here.

In the data set with HUH 7.5 cells, `CNc1nc(N)nc2c1ncn2[C@@H]1O[C@H](COP(=O)(N[C@@H](C)C(=O)OC(C)C)Oc2ccccc2)[C@@H](O)[C@@]1(C)F` (some centres unmarked) [Compound 1A] came in with a CC50 above 20000 nM. Besides, the EC90 in data set [1] came to 3390 nM. Also, in data set [1] (listed as AT-511), the EC50 is 1100 nM and 1130 nM.
In the case of `CNc1nc(N)nc2c1ncn2[C@@H]1O[C@H](CO[P@@](=O)(N[C@@H](C)C(=O)OC(C)C)Oc2ccccc2)[C@@H](O)[C@@]1(C)F` [Compound 1A], the EC90 in data set [2] is 290 nM; in the data set on HCoV-OC43 (setting [9]), 2200 nM; in [3] (unidentified human coronavirus, Huh-7, 72 h, read-out: Virus Yield Reduction Assay EC90) it was 1000 nM; in data set [3] (unidentified human coronavirus, Huh-7, read-out: VYR EC90), 710 nM; in data set [5], 340 to 1200 nM; in the data set on SARS-CoV (Urbani) (setting [9]) it was 340 nM. Further, the EC90 in the data set on SARS-CoV-2 (WA1) (Severe acute respiratory syndrome coronavirus 2, HAE, read-out: Average EC90 from two separate HAE assays) was 500 nM; with SARS-CoV-2 (WA1) (setting [10]), 570 nM; in the data set on SARS-CoV-2 (WA1) (setting [11]), 0.37 µg/mL and 640 nM; in the data set with SARS-CoV-2 (WA1) (Severe acute respiratory syndrome coronavirus 2, HAE, read-out: replicate EC90 determinations) it was 0.33 µg/mL; in the data set with SARS-CoV-2 (WA1) (setting [12]) it was 700 nM and 520 nM and 420 nM; in the data set on SARS-CoV-2 (WA1) (setting [9]), 470 nM. Moreover, the EC50 in the data set with HCoV-OC43 (setting [8]) amounted to 2800 nM; in data set [3] (setting [8]), 1600 nM; in data set [3] (unidentified human coronavirus, Huh-7, 120 h, read-out: Neutral Red Assay EC50), 1700 nM; in data set [3] (unidentified human coronavirus, Huh-7, read-out: Neutral Red EC50), 1000 nM; in data set [3] (unidentified human coronavirus, Huh-7, read-out: Visual EC50, Huh7 cells, visual CPE), 1000 nM; in the data set on HCoV-229E [6] (BHK-21, the 2 experiments averaged in Table 5, read-out: EC50, single experiments), 2000 nM. Also, the EC50 is 1800 nM with HCoV-229E [6] (Human coronavirus 229E, BHK-21, 72 h, BHK-21, dye staining, 3-day incubation, read-out: EC50); 1600 nM in the data set on HCoV-229E [6] (Human coronavirus 229E, BHK-21, BHK-21, the 2 experiments averaged in Table 5, read-out: EC50, single experiments); above 100000 nM in the data set with HCoV-229E [7]. Besides, the CC50 with RD cells is above 86000 nM. Besides, in the data set on Huh7 cells, the “Neutral Red Assay CC50” value is listed as >50^ μg/mL. Moreover, the “Selectivity Index (CC50/EC90)” value in data set [3] (Huh-7, Table 5) is above 75; in the data set with SARS-CoV (Urbani), above 250. This molecule returned a CC50 at 3 days in [4] above 100000 nM. For the same molecule, the “difference of activity between MERS-CoV and other CoVs” value in the data set with MERS-CoV is recorded as 30 fold. Besides, the “replicate EC90 determinations” value in the data set on SARS-CoV-2 (WA1) was “^2Value represents the mean of two replicate EC90 determinations, 0.33 and 0.41 μg/mL”. In the data set on SARS-CoV-2 (WA1) (dNHBE, virus yield reduction assay), the “Selectivity Index” value is above 135.
In the data set with dNHBE (HAE) cells, `O=c1nc(NO)ccn1[C@@H]1O[C@H](CO)[C@@H](O)[C@H]1O` [N4-hydroxycytidine, reference compound] displayed a CC50 above 19000 nM. For the same molecule, in the data set on SARS-CoV-2 (WA1), the “Selectivity Index (CC50/EC90)” value is above 5.1. In addition, the “potency relative to Compound 1A in the same experiment (times less)” value with SARS-CoV-2 (WA1) worked out at 8 times. Moreover, the EC90 with SARS-CoV-2 (WA1) (setting [10]) was 4700 nM; with SARS-CoV-2 (WA1) (setting [11]), 3900 nM; with SARS-CoV-2 (WA1) (setting [12]), 3100 nM.

By CC50 is commonly meant the concentration at which the toxic effect on the cells reaches its halfway point. Read a high CC50 as better tolerance by the cells. A word on the EC90: it is the point of the concentration-response curve where the effect stands at 90%. The EC50 is the midpoint of the concentration-response curve.
